# Measurements as given in US20140121126A1, “METHODS OF DETECTING AXL AND GAS6 IN CANCER PATIENTS” (Memorial Sloan-Kettering Cancer Center, priority 2012, published 2014).
# Legend:
# H3255 ER sublines = test: Cell viability, erlotinib-resistant H3255 ER sublines; type: cell-based, human; conditions: for effect on sensitivity to concurrent erlotinib treatment: H3255 ER sublines
# Excerpt: Establishment of erlotinib-resistant subclones.
# (§1) Cell growth and viability assays.
# HCC827ER cells = test: Combination index (CI) analysis with erlotinib; type: cell-based, human; conditions: ER1 and ER4 sublines; 1:1 ratio; CI < 1 = synergism
# Excerpt: Combination index (CI) analysis. […] The fraction affected (Fa) (i.e., Fa of 0.25 is equivalent to 75% viable cells) and CI values processed using CalcuSyn software (Biosoft, Cambridge, UK). CI values of less than 1, 1, and greater than 1 were taken as synergism, additive effect, and antagonism, respectively.
# HCC827 ER1 and ER2 cells = test: Western blot of signaling biomarkers, HCC827 ER1 and ER2 cells; type: cell-based, human; conditions: for erlotinib effects (decreased pEGFR, pERK, pAKT, pRelA, increased cleaved Parp) with concurrent AXL inhibitor: concurrent treatment with erlotinib, 48 h
# Protocol: (§2) Western blot analysis. Cells were serum starved overnight and whole cell lysates were prepared using 10% TCA lysis or RIPA buffer and clarified by centrifugation. Proteins were separated by 10% SDS-PAGE gel and transferred onto PVDF membranes (Invitrogen) for Western blot analysis. After primary antibody incubation overnight, washing and incubation with secondary antibodies, blots were developed with a chemiluminescence system (Pierce).
# HCC827 cells = test: Cell viability assay (CellTiterGLO), parental HCC827 cells; conditions: 1 μM alone
# Protocol: Cell lines and reagents. The human lung cancer cell lines were purchased from the American Type Culture Collection except for H3255, PC-9 cells were generously provided. Cells were grown in RPMI 1640 supplemented with 10% FBS and 1× Antibiotic/Antimycotic (Invitrogen) and were in the logarithmic growth phase at the initiation of all experiments. […] Drugs were dissolved in DMSO at 10 mM and stored at −20° C. The final DMSO concentration in all experiments was <0.1% in medium. All antibodies were purchased from Cell Signaling (Boston, Mass.) except the anti-AXL and anti-phospho-AXL and anti-GAS6 antibodies, which were purchased from R&D Systems (Minneapolis, Minn.).
# (§8) Cell growth and viability assays. Cells were seeded at a density of 3000 cells/well in 96-well plates in RPMI 1640 containing 10% FBS overnight, then treated with respective agents for an additional 3 days. Viable cell numbers were determined using CellTiterGLO or MTS assay kit, as indicated in the descriptions of the drawings, according to the manufacturer's protocols (Promega, Madison, Wis., USA). Each assay consisted of 3 replicate wells and was repeated at least twice. Data were expressed as the percentage survival of control calculated from the absorbance, corrected for background.
# HCC827 ER1-ER5 sublines = test: Cell viability assay (CellTiterGLO), erlotinib resistant HCC827 ER1-ER5 sublines; conditions: for effect of single-agent treatment on cell viability: 1 μM alone, HCC827 ER cells; for effect on sensitivity to concurrent erlotinib treatment: AXL inhibitor 1 μM plus erlotinib, each ER subline
# Protocol: as §8
# HCC827 ER3 cells = test: Migration and adhesion, HCC827 ER3 cells; type: cell-based, human; conditions: XL-880 1 μM (FIG. 4c-d)
# Protocol: (§3) [Vuoriluoto, K. et al. Oncogene 30, 1436-1448 (2011)] […] Together, the data support a possible role for an EMT that is marked by vimentin overexpression in the development of acquired EGFR TKI resistance that is driven by AXL in this model of human EGFR mutant lung cancer.
# (§4) Migration and adhesion studies. 180,000 cells were plated onto 3.5 cm cell culture dishes. At 30 minutes, the dishes were washed and cells were fixed and stained for counting. Average cell numbers of 5 random 100× fields under light microscope are presented with ±SEM. Migration: 10,000 cells in 200 μl medium without FBS were placed in the upper chamber of transwells (6.5 mm diameter, 8 μm pore size polycarbonate membrane, Corning), and the lower chamber filled with 1 ml of medium with 10% FBS supplemented with or without the indicated drug treatments. After incubation for 16 hours, non-migrating cells were removed with cotton swabs, and the cells that migrated into the lower surface of the filters were stained with crystal violet. Cells were counted under a microscope, and triplicate results are expressed as means±SEM.
# parental HCC827 cells [1] = test: Migration and adhesion, parental HCC827 cells; type: cell-based, human; conditions: XL-880 1 μM (FIG. 4c-d)
# Protocol: as §3, §4
# [2] = tested on: HCC827 cells expressing AXL constructs; test: Viability of HCC827 cells expressing AXL cDNA constructs; type: cell-based, human
# Excerpt: (§5) To address these questions, we generated cDNA constructs that encode either wild type (WT) AXL or a kinase-impaired mutant of AXL in which a key conserved lysine within the kinase domain was changed to arginine (K567R).
# as §1
# (§6) AXL cDNA and overexpression studies. The AXL gene with an HA tag at the C-terminus was amplified by overlapping PCR using cDNA generated from ER3 cells and cloned into pcDNA3.1 (+) vector. Amino acid changes (K567R or L620M) were introduced using the Strategene QuickChange Mutagenesis Kit, according to the manufacturer's protocol. The accuracy of the constructs was confirmed by DNA sequencing. Cells were transfected with the AXL-expressing vectors or empty vector as a control by using FuGENE HD reagent according to the manufacturer's protocol (Roche Applied Sciences, Indianapolis, Ind., USA). Stable HCC827 subclones resistant to the selection antibiotic, 500 μg/ml G418 were generated 24 hours post-transfection. Empty-vector expressing HCC827 cells were generated as a control. AXL protein expression was detected by using anti-HA probe (Santa Cruz Biotechnology).
# AXL = test: pAXL western blot in HCC827 cells expressing AXL L620M; type: cell-based, human
# Protocol: Cancer research 69, 8009-8016 (2009); Yun, C. H. et al. PNAS 105, 2070-2075 (2008)] (FIG. 18).
# as §2, §6
# ER4 cells = test: Apoptosis by PARP cleavage and BIM induction in ER4 cells; type: cell-based, human; conditions: 24 hour exposure; AD57 1 micromolar, AD80 1 micromolar
# Protocol: FIG. 22. Induction of apoptosis by combined EGFR and AXL inhibition. […] 24-hour drug exposure. Apoptosis measured by induction of PARP cleavage and BIM induction.
# H3255 cells = test: Cell viability, parental H3255 cells; type: cell-based; conditions: Homo sapiens, NCI-H3255, read-out: erlotinib IC50, EGFR L858R
# Protocol: as §8
# PC9 cells = test: Cell viability (CellTiterGLO), PC9 cells; type: cell-based; conditions: Homo sapiens, PC-9, read-out: erlotinib IC50, EGFR exon 19-deletion mutant
# Excerpt: as §5, §1
# HCC827 xenograft tumors = tested on: HCC827 xenograft tumors
# Protocol: (§7) Tumorigenesis assays. Human lung cancer cells (as indicated) were injected subcutaneously into the flanks of CB17 SCID mice (Taconic). […] Tumor measurements were made on days indicated and expressed as described in the descriptions of the drawings. All animal experiments were performed in compliance with the guidelines of the Research Animal Resource Center of the Memorial Sloan-Kettering Cancer Center.
# HCC827 ER1 tumors = test: HCC827 ER1 xenograft tumors treated with erlotinib; type: in vivo, mice; conditions: ER1 tumors transduced with non-target shRNA, 12.5 mg/kg/day
# Protocol: as §7
# parental HCC827 cells [3] = test: Western blot of signaling biomarkers, parental HCC827 cells; type: cell-based, human; conditions: erlotinib 100 nM
# Protocol: as §2
# HCC827 tumors = test: Western blot of signaling biomarkers in HCC827 xenograft tumors; type: in vivo, mice
# Protocol: as §2, §7
# [4] = ER4 cells, 0.1, 1, 10 micromolar in combination with erlotinib
compound,measurement,setting,value
"S=C(NCc1ccc2c(c1)OCO2)N1CCN(c2ncnc3c2oc2ccccc23)CC1 [MP-470, amuvatinib]",effect on sensitivity to concurrent erlotinib treatment,H3255 ER sublines,restored sensitivity to concurrent erlotinib treatment
same,synergy with concurrent erlotinib treatment (combination index),HCC827ER cells,synergistic
same,"erlotinib effects (decreased pEGFR, pERK, pAKT, pRelA, increased cleaved Parp) with concurrent AXL inhibitor",HCC827 ER1 and ER2 cells,observed only upon concurrent treatment
same,effect of single-agent treatment on cell viability,HCC827 cells,did not significantly affect the viability
same,effect of single-agent treatment on cell viability,HCC827 ER1-ER5 sublines,did not significantly affect the viability
same,effect on sensitivity to concurrent erlotinib treatment,HCC827 ER1-ER5 sublines,restored sensitivity to concurrent erlotinib treatment
"C[C@@H](Oc1cc(-c2cnn(C3CCNCC3)c2)cnc1N)c1c(Cl)ccc(F)c1Cl [Crizotinib, crizotinib]",effect on sensitivity to erlotinib,"HCC827 ER1-ER5 sublines; ER cells, at 10 μM, in combination with erlotinib",confers dose-dependent sensitivity to erlotinib
"COc1cc2c(Oc3ccc(NC(=O)C4(C(=O)Nc5ccc(F)cc5)CC4)cc3F)ccnc2cc1OCCCN1CCOCC1 [XL-880, foretinib]",effect on sensitivity to concurrent erlotinib treatment,H3255 ER sublines,restored sensitivity to concurrent erlotinib treatment
same,effect on migration and adhesion,HCC827 ER3 cells,inhibited migration and adhesion
same,effect on migration and adhesion,parental HCC827 cells [1],had no effect
same,"erlotinib effects (decreased pEGFR, pERK, pAKT, pRelA, increased cleaved Parp) with concurrent AXL inhibitor",HCC827 ER1 and ER2 cells,observed only upon concurrent treatment
same,ability to restore erlotinib sensitivity,"[2]; XL-880 1 μM, HCC827 cells expressing AXL L620M",abrogated the ability
same,effect on erlotinib resistance induced by overexpression of WT AXL,"[2]; XL-880 1 μM, HCC827 cells overexpressing WT AXL",reversed
same,change of IC50 for XL-880,[2]; expression of AXL L620M gatekeeper mutant,significantly increased
same,ability to decrease pAXL,AXL,blocked the ability
same,effect of single-agent treatment on cell viability,HCC827 cells,did not significantly affect the viability
same,effect of single-agent treatment on cell viability,HCC827 ER1-ER5 sublines,did not significantly affect the viability
same,effect on sensitivity to concurrent erlotinib treatment,HCC827 ER1-ER5 sublines,restored sensitivity to concurrent erlotinib treatment
CC(C)n1nc(-c2ccc(NC(=O)Nc3cccc(C(F)(F)F)c3)cc2)c2c(N)ncnc21 [AD57],apoptosis (PARP cleavage and BIM induction) combined with erlotinib,ER4 cells,enhances apoptosis
same,effect on sensitivity to erlotinib,HCC827 ER1-ER5 sublines; [4],confer dose-dependent sensitivity to erlotinib
CC(C)n1nc(-c2ccc(NC(=O)Nc3cc(C(F)(F)F)ccc3F)cc2)c2c(N)ncnc21 [AD80],apoptosis (PARP cleavage and BIM induction) combined with erlotinib,ER4 cells,enhances apoptosis
same,effect on sensitivity to erlotinib,HCC827 ER1-ER5 sublines; [4],confer dose-dependent sensitivity to erlotinib
"C#Cc1cccc(Nc2ncnc3cc(OCCOC)c(OCCOC)cc23)c1 [Erlotinib, erlotinib]",IC50,H3255 cells,~15 nM
same,IC50,"H3255 ER sublines; Homo sapiens, NCI-H3255, read-out: erlotinib IC50, 2 isogenic erlotinib-resistant sublines of H3255 (EGFR L858R)",> 1000 nM
same,IC50,PC9 cells,~25 nM
same,Maximum Volume Reduction (% change from baseline),"HCC827 xenograft tumors; erlotinib 25 mg/kg, 10 tumors per group, average",−69 % change from baseline
same,Time to Maximum Volume Reduction (weeks),"HCC827 xenograft tumors; erlotinib 25 mg/kg, median ± SEM",5 ± 0.2 weeks
same,tumor response to erlotinib treatment,"HCC827 xenograft tumors; parental HCC827 tumors, 12.5 mg/kg/day",sensitive
same,tumor response to erlotinib treatment,HCC827 ER1 tumors,erlotinib-resistant
same,"effect on pERK, pAKT, pRelA and Parp cleavage",parental HCC827 cells [3],"decreased pERK, pAKT and pRelA (a marker of NF-kB signaling) and increased Parp cleavage"
same,effect on pEGFR,parental HCC827 cells [3]; parental HCC827,decreased pEGFR
same,effect on pEGFR,"HCC827 ER1 and ER2 cells; erlotinib 100 nM, ER1 and ER2 sublines",decreased pEGFR
same,"effect on pEGFR, pErbB3 and pMET in tumors","HCC827 tumors; sensitive tumors at 48 h and resistant tumors at each dose, vs vehicle","decreased levels of pEGFR, pErbB3, and pMET"
same,"effect on pAKT, pERK, pRelA and Parp cleavage in tumors","HCC827 tumors; sensitive tumors, 48 h treatment, 12.5 mg/kg/day","decreased pAKT, pERK, and pRelA and increased Parp cleavage"
